# Data reported in patent US12528816B2, “Substituted imidazo [1,2-b] pyridazines and [1, 2, 4] triazolo [ 4,3-b] pyridazines as camkii inhibitors” (Cardurion Pharmaceuticals, INC., priority 2020, dated 2026).
# Molecular target: T1, human CaMKIIδ (Homo sapiens, UniProt Q13557)
# T1 construct: Full-length, glutathione-S-transferase(GST)-tagged, human CaMKIIδ was purchased from Carna Biosciences; purchased Carna Biosciences (CaMKIIδ); Wako Pure Chemical Industries (calmodulin) 02-111
# Experiment: Evaluation of in vitro CaMKII inhibitory activity (binding assay, TR-FRET)
# Conditions: human CaMKIIδ, TR-FRET binding assay; class symbols A/B/C; read-out: Act (CaMKII inhibitory activity, binding assay)
# Summary of the method: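 Inhibitors, in eight concentrations of 4-fold dilution, were incubated 1 h at room temperature with a protein–fluorescent probe premix preformed 30 min on ice, containing calmodulin and terbium anti-GST antibody. Displacement read by TR-FRET in duplicate; IC50 by logistic fitting.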
row,Compound,IC50 [nM]
1,CC(=O)NCCCOc1cccc(-c2cnc3ccc(-c4ccc(F)c(O[C@@H](C)Cn5cnnn5)c4)nn23)c1C#N [compound 204],< 10
2,CC(=O)N(C)CCOc1cccc(-c2cnc3ccc(-c4ccc(F)c(O[C@@H](C)Cn5cnnn5)c4)nn23)c1C#N [compound 205],< 10
3,C[C@@H](Cn1cnnn1)Oc1cc(-c2ccc3ncc(-c4cccc(OCC(F)F)c4C#N)n3n2)ccc1F [compound 206],< 10
4,C[C@@H](Cn1cnnn1)Oc1cc(-c2ccc3ncc(-c4cccc(OCCN5CCCC5=O)c4C#N)n3n2)ccc1F [compound 207],< 10
5,C[C@@H](Cn1cnnn1)Oc1cc(-c2ccc3ncc(-c4cccc(OCCC5CCNCC5)c4C#N)n3n2)ccc1F [compound 208],< 10
6,C[C@@H](Cn1cnnn1)Oc1cc(-c2ccc3ncc(-c4cccc(OCCOCCN(C)C)c4C#N)n3n2)ccc1F [compound 209],< 10
7,C[C@@H](Cn1cnnn1)Oc1cc(-c2ccc3ncc(-c4cccc(OCC5CCC5)c4C#N)n3n2)ccc1F [compound 210],< 10
8,C[C@@H](Cn1cnnn1)Oc1cc(-c2ccc3ncc(-c4cccc(OCCN5C(=O)CCC5=O)c4C#N)n3n2)ccc1F [compound 211],< 10
9,COCCOCCOCCOc1cccc(-c2cnc3ccc(-c4ccc(F)c(O[C@@H](C)Cn5cnnn5)c4)nn23)c1C#N [compound 212],< 10
10,CC(C)Oc1cccc(-c2cnc3ccc(-c4ccc(F)c(O[C@@H](C)Cn5cnnn5)c4)nn23)c1C#N [compound 213],< 10
11,C[C@@H](Cn1cnnn1)Oc1cc(-c2ccc3ncc(-c4cccc(OCC(F)(F)F)c4C#N)n3n2)ccc1F [compound 214],< 10
12,C[C@@H](Cn1cnnn1)Oc1cc(-c2ccc3ncc(-c4cccc(OCCN5CCC5)c4C#N)n3n2)ccc1F [compound 215],< 10
13,C[C@@H](Cn1cnnn1)Oc1cc(-c2ccc3ncc(-c4cccc(OCC(=O)O)c4C#N)n3n2)ccc1F [compound 216],< 10
14,C[C@@H](Cn1cnnn1)Oc1cc(-c2ccc3ncc(-c4cccc(OCCCC(=O)O)c4C#N)n3n2)ccc1F [compound 217],< 10
15,C[C@@H](Cn1cnnn1)Oc1cc(-c2ccc3ncc(-c4cccc[n+]4[O-])n3n2)ccc1F [compound 218],10 to 100
16,COc1ncc(C#N)cc1-c1cnc2ccc(-c3ccc(F)c(O[C@@H](C)Cn4cnnn4)c3)nn12 [compound 219],< 10
17,C[C@@H](Cn1cnnn1)Oc1cc(-c2ccc3ncc(-c4cc(C#N)c[nH]c4=O)n3n2)ccc1F [compound 220],< 10
18,C[C@@H](Cn1cnnn1)Oc1cc(-c2ccc3ncc(-c4cc(C#N)cn(C)c4=O)n3n2)ccc1F [compound 221],< 10
19,C[C@@H](Cn1cnnn1)Oc1cc(-c2ccc3ncc(-c4cn(CCCO)nc4C#N)n3n2)ccc1F [compound 222],10 to 100
20,"COCCCn1ncc(-c2cnc3ccc(-c4ccc(F)c(O[C@@H](C)Cn5cnnn5)c4)nn23)c1C#N [compound 223, 4-[6-(4-fluoro-3-{[(2S)-1-(1H-tetrazol-1-yl)propan-2-yl]oxy}phenyl)imidazo[1,2-b]pyridazin-3-yl]-1-(3-methoxypropyl)-1H-pyrazole-5-carbonitrile]",< 10
21,COCCCOC(=O)c1c(-c2cnc3ccc(-c4ccc(F)c(O[C@@H](C)Cn5cnnn5)c4)nn23)cnn1CCCOC [compound 224],> 100
22,C[C@@H](Cn1cnnn1)Oc1cc(-c2ccc3ncc(-c4cnn(CCCO)c4C#N)n3n2)ccc1F [compound 225],< 10
23,"C[C@@H](Cn1cnnn1)Oc1cc(-c2ccc3ncc(-c4cccc(OCC(C)(C)C#N)c4C#N)n3n2)ccc1F [compound 226, 2-(2-cyano-2,2-dimethylethoxy)-6-[6-(4-fluoro-3-{[(2S)-1-(1H-tetrazol-1-yl)propan-2-yl]oxy}phenyl)imidazo[1,2-b]pyridazin-3-yl]benzonitrile]",< 10
24,"C[C@@H](Cn1cnnn1)Oc1cc(-c2ccc3ncc(-c4ccccn4)n3n2)ccc1F [compound 227, 2-[6-(4-fluoro-3-{[(2S)-1-(1H-tetrazol-1-yl)propan-2-yl]oxy}phenyl)imidazo[1,2-b]pyridazin-3-yl]pyridine]",< 10
25,C[C@@H](Cn1cnnn1)Oc1cc(-c2ccc3ncn(-c4cccc(C(=O)N(C)C)c4C#N)c3n2)ccc1F [compound 228],> 100
26,"COC1CN(C(=O)c2cccc(-n3cnc4ccc(-c5ccc(F)c(O[C@@H](C)Cn6cnnn6)c5)nc43)c2C#N)C1 [compound 229, 2-[5-(4-fluoro-3-{[(2S)-1-(1H-tetrazol-1-yl)propan-2-yl]oxy}phenyl)-3H-imidazo[4,5-b]pyridin-3-yl]-6-(3-methoxyazetidine-1-carbonyl)benzonitrile]",10 to 100
27,COCCCn1ncc(-c2cnc3ccc(-c4ccc(F)c(O[C@@H](C)Cn5cnnn5)c4)nn23)c1C(=O)O [compound 230],> 100

# Same assay, conditions: in vitro CaMKII inhibitory activity (binding assay), human CaMKIIδ; read-out: Act
row,Compound,IC50 [nM]
1,C[C@@H](Cn1cnnn1)Oc1cc(-c2ccc3ncc(-c4nccc(NC(=O)OC(C)(C)C)c4C#N)n3n2)ccc1F [compound 231],< 10
2,C[C@@H](Cn1cnnn1)Oc1cc(-c2ccc3ncc(-c4nccc(N(C(=O)OC(C)(C)C)C(=O)OC(C)(C)C)c4C#N)n3n2)ccc1F [compound 232],< 10
3,C[C@@H](Cn1cnnn1)Oc1cc(-c2ccc3ncc(-c4ccnc(N)c4C#N)n3n2)ccc1F [compound 233],< 10
4,C[C@@H](Cn1cnnn1)Oc1cc(-c2ccc3ncc(-c4nccc(N)c4C#N)n3n2)ccc1F [compound 234],< 10
5,CNC(=O)c1c(-c2cnc3ccc(-c4ccc(F)c(O[C@@H](C)Cn5cnnn5)c4)nn23)cnn1CCCOC [compound 235],> 100
6,COCCCn1ncc(-c2cnc3ccc(-c4ccc(F)c(O[C@@H](C)Cn5cnnn5)c4)nn23)c1C(=O)N(C)C [compound 236],> 100
7,COCCCn1ncc(-c2cnc3ccc(-c4ccc(F)c(O[C@@H](C)Cn5cnnn5)c4)nn23)c1C(=O)NCCOC [compound 237],> 100
8,COC(=O)c1sccc1-c1cnc2ccc(-c3ccc(F)c(O[C@@H](C)Cn4cnnn4)c3)nn12 [compound 238],10 to 100
9,COc1cc(-c2cnc3ccc(-c4ccc(F)c(O[C@@H](C)Cn5cnnn5)c4)nn23)c(C#N)cn1 [compound 240],< 10
10,C[C@@H](Cn1cnnn1)Oc1cc(-c2ccc3ncc(-c4cc(=O)[nH]cc4C#N)n3n2)ccc1F [compound 241],< 10
11,C[C@@H](Cn1cnnn1)Oc1cc(-c2ccc3ncc(-c4cc(=O)n(C)cc4C#N)n3n2)ccc1F [compound 242],< 10
12,C[C@@H](Cn1cnnn1)Oc1cc(-c2ccc3ncc(-c4ccsc4C(=O)O)n3n2)ccc1F [compound 243],> 100
13,CNC(=O)c1sccc1-c1cnc2ccc(-c3ccc(F)c(O[C@@H](C)Cn4cnnn4)c3)nn12 [compound 245],10 to 100
14,C[C@@H](Cn1cnnn1)Oc1cc(-c2ccc3ncc(-c4cc(F)ccc4C#N)n3n2)ccc1F [compound 246],< 10
15,C[C@@H](Cn1cnnn1)Oc1cc(-c2ccc3ncc(-c4cccnc4C#N)n3n2)ccc1F [compound 248],< 10
16,COc1ccc(-c2cnc3ccc(-c4ccc(F)c(O[C@@H](C)Cn5cnnn5)c4)nn23)c(C#N)n1 [compound 249],< 10
17,C[C@@H](Cn1cnnn1)Oc1cc(-c2ccc3ncc(-c4ccn5ccnc5c4C#N)n3n2)ccc1F [compound 250],< 10
18,"C[C@@H](Cn1cnnn1)Oc1cccc(-c2ccc3ncc(-c4ccc[nH]c4=O)n3n2)c1 [compound 252, 3-[6-(3-{[(2S)-1-(1H-tetrazol-1-yl)propan-2-yl]oxy}phenyl)imidazo[1,2-b]pyridazin-3-yl]-1,2-dihydropyridin-2-one]",< 10
19,COCCn1cccc(-c2cnc3ccc(-c4cccc(O[C@@H](C)Cn5cnnn5)c4)nn23)c1=O [compound 254],< 10
20,C[C@@H](Cn1cnnn1)Oc1cc(-c2ccc3ncc(-c4ccc(=O)[nH]c4C#N)n3n2)ccc1F [compound 255],< 10
21,C[C@@H](Cn1cnnn1)Oc1cc(-c2ccc3ncc(-c4ccc(=O)n(C)c4C#N)n3n2)ccc1F [compound 256],> 100
22,"C[C@@H](Cn1cnnn1)Oc1cccc(-c2ccc3ncc(-c4cccnc4C#N)n3n2)c1 [compound 257, 3-[6-(3-{[(2S)-1-(1H-tetrazol-1-yl)propan-2-yl]oxy}phenyl)imidazo[1,2-b]pyridazin-3-yl]pyridine-2-carbonitrile]",< 10
23,C[C@@H](Cn1cnnn1)Oc1cc(-c2ccc3ncc(-c4cccc(N=S5(=O)CCCC5)c4C#N)n3n2)ccc1F [compound 258],< 10
24,"C[C@@H](Cn1cnnn1)Oc1cccc(-c2ccc3ncc(-c4ccn(C)c(=O)c4C#N)n3n2)c1 [compound 259, 1-methyl-2-oxo-4-[6-(3-{[(2S)-1-(1H-tetrazol-1-yl)propan-2-yl]oxy}phenyl)imidazo[1,2-b]pyridazin-3-yl]-1,2-dihydropyridine-3-carbonitrile]",< 10
25,C[C@@H](Cn1cnnn1)Oc1cccc(-c2ccc3ncc(-c4ccnc(Cl)c4C#N)n3n2)c1 [compound 260],< 10
26,CCOc1nccc(-c2cnc3ccc(-c4cccc(O[C@@H](C)Cn5cnnn5)c4)nn23)c1C#N [compound 261],< 10
27,C[C@@H](Cn1cnnn1)Oc1cccc(-c2ccc3ncc(-c4nccnc4C#N)n3n2)c1 [compound 262],< 10
28,C[C@@H](Cn1cnnn1)Oc1cc(-c2ccc3ncc(-c4cc(N=S(C)(C)=O)ccc4C#N)n3n2)ccc1F [compound 263],> 100
29,C[C@@H](Cn1cnnn1)Oc1cc(-c2ccc3ncc(-c4cc(N=S5(=O)CCCC5)ccc4C#N)n3n2)ccc1F [compound 264],> 100
30,C[C@@H](Cn1cnnn1)Oc1cc(-c2ccc3ncc(-c4cn(C)nc4C(F)(F)F)n3n2)ccc1F [compound 265],10 to 100
